# Reference: patent US9839614B2, “Nanoparticle and polymer formulations for thyroid hormone analogs, antagonists, and formulations and uses thereof” (NANOPHARMACEUTICALS LLC, priority 2009, dated 2017)
# “And” between values parts separate entries of the source, which are not always exact repeats. Equal entries are not always repeated.
# Columns and labels:
# GL261 tumor cells = assay: GL261 apoptosis and necrosis with or without 5 Gy x-rays; type: cell-based, murine; details: Tetrac 2 μM, T-NP 0.2 μM
# Protocol: FIG. 61 is a comparison of apoptosis on Tetrac (2 μM) and T-NP (0.2 μM) treated GL261 cells that were or were not exposed to 5 Gy x-rays. The effects of Tetrac and T-NP plus 5 Gy of x-rays on apoptosis appear to be supra-additive.
# Apoptotic cells were identified using TUNEL staining (Terminal deoxynucleotidyl transferase dUTP nick end labeling (TUNEL)) (staining kit obtained from Oncor, Gaithersberg, Md.; ApoTag) (See Gavrieli et al., J. Cell. Biol. 1992. 119:493-501). The staining procedures were carried out as instructed by the manufacturer. Gill's hematoxylin was used as a counterstain to discriminate negative cells (purple) from positive cells (brown). Negative controls were performed by omitting the terminal deoxynucleotidyl transferase enzyme. […]
# To perform FCM, a total of 10^6 adherent cells were trypsinized and washed once in ambient temperature PBS. […] Cells were left overnight at 4° C. in the dark and were then analyzed on a Coulter fluorescence-activated cell sorter (Coulter Electronics, Hialeah, Fla.). Cells were excited with a single 488 nm argon laser and the resulting fluorescence was detected using a 585 nm filter. Linear red-orange fluorescence (FL3) data were collected in list format and 10,000 events were collected. The distribution of cells within the cell cycle (sub-G1, G1, S, and G2 M phases) was determined using a Coulter software program.
# [1] = system: doxorubicin-resistant MCF7/R tumors; assay: Doxorubicin-resistant tumors in nude mice; type: in vivo
# Protocol: Mice were injected with doxorubicin-resistant MCF7/R cells (10^6) and after 10 days, they were assigned into groups of seven mice each and challenged with doxorubicin (2 mg/kg) or Tetrac (30 mg/kg) either alone or in combination. Tumor volume was measured every 3 days for up to three weeks.
# [2] = system: GL261 murine brain tumor cells; assay: GL261 single dose 250 kVp x-ray survival (SHMT and LQ analysis); type: cell-based
# Protocol: To irradiate 25 cm^2 flasks, an x-ray machine was used and (Philips 250 kVp Therapeutic X-ray Machine, Einhoven, […]) operated at 250 kVp and 15 mA with added filtration of 0.4 mm Thoreaus filter. The target to source distance was approximately 30 cm. Dose rates were measured using an R-meter (Victoreen R-meter, Cleveland, Ohio), and converted to absorbed (Gy) doses using appropriate temperature, pressure, and R to Gy conversion factors. The dose rate was 1 Gy per min. Flasks were irradiated at ambient temperature.
# For […] analyses, survival data lying at or below 36.8% survival were analyzed by using the log fractional survival (log FxS) versus dose (D). Data were fit using linear regression analysis (SigmaPlot, V. 10, Systat Corp., Point Richmond, Calif.) to obtain the Y-intercept (or n, the extrapolation number) and the slope (1/D0), and their 95% confidence limits. (See Goldstein, A. In: Biostatistics, New York, The MacMillan Co., 1964, p. 140-146). The D0 value (Gy) is defined as the inverse of the slope, and the corrected Dq value (Gy) was then defined using the relationship: Dq(Gy)=ln n×D0(Gy) The 95% confidence limits on Dq were defined using error propagation. (See Chase, et al., In: Principles of Radioisotope Methodology. Minneapolis, Minn. Burgess Publ. Co., 1962, p. 68, 87-90). Statistics: LQ Analysis
# For LQ analyses, data lying between a fractional survival of 1.00 and 0.05 were used. The fractional survival data at each dose were transformed using the relationship (−ln F×S/D) and plotted against dose (D). A regression analysis was performed to yield the LQ equation along with their 95% confidence limit values using a t-table with the appropriate (N−1) degrees of freedom. (See Goldstein, A. In: Biostatistics, New York, The MacMillan Co., 1964, p. 140-146).
# To determine the tetrac modification factor (TMF), the survival at 2 Gy obtained for control cells was divided by the survival at 2 Gy for tetrac treated cells. The 95% confidence limits on the ratio were determined using error propagation techniques. (See Chase, et al. In: Princiiples of Radioisotope Methodology, Minneapolis, Minn., Burgress Publ. Co., 1962, p. 68, 87-90).
# [3] = system: human MTC cells gene expression; assay: RNA microarray analysis of h-MTC cells; type: cell-based
# Protocol: Technical aspects of microarray studies, stringent quality control of microarray studies and statistic analysis of gene expression were as described previously. […] In brief, the array hybridization and processing, data retrieval and the analysis were carried out with standard sets of Affymetrix (Santa Clara, Calif.) equipment, software and protocols in an Affymetrix microarray core facility. RNA was extracted from cell cultures of two independent biological replicates of each experimental condition and analyzed for sample purity and integrity, using BioAnalyzer instrumentation (Agilent, Santa Clara, Calif.). Expression analysis of 54,675 transcripts was conducted for each sample, using Affymetrix HG-U133A Plus 2.0 arrays. Data retrieval and analysis was completed by MAS5.0 software. Concordant changes of gene expression for each experimental condition were determined at the statistical threshold P value, <0.01 (two-tailed t test).
# [4] = Exponential phase (with Tetrac)
# [5] = Unfed plateau Phase (with Tetrac)
compound,measurement,setting,value
"O=C(O)Cc1cc(I)c(Oc2cc(I)c(O)c(I)c2)c(I)c1 [Tetrac, tetraiodothyroacetic acid]",effect on apoptosis combined with 5 Gy of x-rays,GL261 tumor cells,supra-additive
same,effect on necrosis combined with x-rays,GL261 tumor cells; 120 hours,essentially additive
same,growth of drug resistant tumors,[1]; Tetrac 30 mg/kg,effective in suppressing the growth of drug resistant tumors
same,toxic effect,[1]; Tetrac 30 mg/kg,without any noticeable toxic effect
same,doxorubicin-sensitivity in vivo,[1]; Tetrac with doxorubicin 2 mg/kg,not restored
same,SF2 (survival at 2 Gy),"[2]; Exponential Phase (with Tetrac), 95% confidence limits in parentheses",14.2 (10.8-18.8) %
same,SHMT n,"[2]; Exponential phase (with Tetrac 2 μM, 1 h)",1.06
same,LQ α (Gy^−1),[2]; [4],0.930 Gy^−1
same,LQ β (Gy^−2),[2]; [4],0.003 Gy^−2
same,SHMT D0 (Gy),[2]; [4],1.08 Gy and 1.08 (0.09). Gy
same,sensitization of hypoxic or oxic cells,[2]; Tetrac 2 μM,sensitize both oxic and hypoxic cells equally
same,LQ α (Gy^−1),[2]; [5],1.157 Gy^−1
same,LQ β (Gy^−2),[2]; [5],0.066 Gy^−2
same,SF2 (survival at 2 Gy),[2]; [5],7.6%
same,SHMT D0 (Gy),[2]; [5],0.75 Gy
same,SHMT Dq (Gy),[2]; [5],0.00 Gy
same,SHMT n,[2]; [5],1.04
same,increase of D0,[2]; exponentially growing cells,15%
same,reduction of Dq,[2]; exponentially growing cells,100%
same,reduction of extrapolation number n,[2]; exponentially growing cells,93%
same,survival of Tetrac treated cells at 2 Gy,[2]; non-Tetrac treated cells 32% (FIG. 57),13%
same,reduction of D0,[2]; plateau phase cells,6%
same,reduction of Dq,[2]; plateau phase cells,100%
same,VEGFA expression,[3],significantly decreased expression
same,"expression of apoptosis genes (CASP2, DFFA, FAF1, CASP8AP2)",[3],caused expression of genes associated with induction of apoptosis
same,thrombospondin (THBS1) gene expression,[3],concomitant increase
